In patent publication US7417054B2, “Naphthyridine compounds” (Janssen Pharmaceutica N.V., priority 2005, dated 2008):
Read-outs that look alike come from different tables or passages of the source.

Assays:
human H3 receptor [1] = target: T1, human H3 receptor (Homo sapiens, UniProt Q9Y5N1); assay: H3 receptor binding, N-[3H]-α-methylhistamine displacement on SK-N-MC cell membranes; details: cloned human H3 receptor in SK-N-MC cell membranes; 0.8 nM N-[3H]-α-methylhistamine; 60 min at 25° C.
T1 construct: expressed in transfected cells; host or cells: SK-N-MC cells
T1 sequence (Q9Y5N1 whole entry): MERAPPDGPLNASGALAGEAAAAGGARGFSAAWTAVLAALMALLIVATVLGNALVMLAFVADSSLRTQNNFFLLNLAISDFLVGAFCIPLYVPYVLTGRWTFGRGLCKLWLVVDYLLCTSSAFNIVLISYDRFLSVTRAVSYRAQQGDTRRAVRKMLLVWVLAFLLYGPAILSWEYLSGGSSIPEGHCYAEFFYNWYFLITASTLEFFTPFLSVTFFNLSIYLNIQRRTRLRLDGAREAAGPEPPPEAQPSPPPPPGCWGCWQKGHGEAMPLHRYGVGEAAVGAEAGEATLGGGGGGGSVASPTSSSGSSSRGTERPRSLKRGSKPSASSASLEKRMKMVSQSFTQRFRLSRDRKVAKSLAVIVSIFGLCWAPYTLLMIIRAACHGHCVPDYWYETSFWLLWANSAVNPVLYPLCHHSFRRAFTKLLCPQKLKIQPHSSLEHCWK

human SERT = target: T2, human SERT (Homo sapiens, UniProt P31645); assay: Human SERT binding, 3H-citalopram displacement on HEK293 membranes; details: HEK293 membranes expressing the human SERT, rt for 1 h
T2 construct: expressed in transfected cells; host or cells: HEK293
T2 sequence (P31645 whole entry): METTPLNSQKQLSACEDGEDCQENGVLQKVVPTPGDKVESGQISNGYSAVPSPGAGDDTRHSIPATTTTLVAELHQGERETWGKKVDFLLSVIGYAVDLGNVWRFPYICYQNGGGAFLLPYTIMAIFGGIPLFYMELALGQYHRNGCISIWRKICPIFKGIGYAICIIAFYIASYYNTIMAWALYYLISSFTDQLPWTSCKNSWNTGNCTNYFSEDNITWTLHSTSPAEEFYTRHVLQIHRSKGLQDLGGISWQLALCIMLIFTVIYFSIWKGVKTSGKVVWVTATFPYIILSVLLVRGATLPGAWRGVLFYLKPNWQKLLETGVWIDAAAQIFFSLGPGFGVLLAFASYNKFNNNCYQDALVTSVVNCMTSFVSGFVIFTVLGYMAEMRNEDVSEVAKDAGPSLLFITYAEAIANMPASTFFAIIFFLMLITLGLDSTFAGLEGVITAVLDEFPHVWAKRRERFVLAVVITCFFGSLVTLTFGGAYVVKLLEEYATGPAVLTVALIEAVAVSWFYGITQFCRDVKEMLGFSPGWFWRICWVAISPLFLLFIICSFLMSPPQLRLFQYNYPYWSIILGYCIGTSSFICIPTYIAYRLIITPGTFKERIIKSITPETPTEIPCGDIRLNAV
Experimental: Homogenized HEK293 (Human Embryonic Kidney) membranes expressing the human SERT were incubated with ^3H-citalopram (SERT) at rt for 1 h in 50 mM Tris, 120 mM NaCl, 5 mM KCl (pH 7.4). […] The membranes were washed and the radioactivity was counted as above.

human H3 receptor [2] = target: T1, human H3 receptor; assay: Cyclic AMP accumulation, β-galactosidase reporter in SK-N-MC cells; assay type: cell-based
Experimental: Sublines of SK-N-MC cells were created that expressed a reporter construct and the human H3 receptor. The reporter gene (β-galactosidase) is under the control of multiple cyclic AMP responsive elements. In 96-well plates, histamine was added directly to the cell media followed 5 min later by an addition of forskolin (5 μM final concentration). When appropriate, antagonists were added 10 min prior to agonist addition. After a 6-h incubation at 37° C., the media was aspirated and the cells washed with 200 μL of phosphate-buffered saline followed by a second aspiration. Cells were lysed with 25 μL 0.1× assay buffer (10 mM Na-phosphate, pH 8, 0.2 mM MgSO4, 0.01 mM MnCl2) and incubated at rt for 10 min. Cells were then incubated for 10 min with 100 μL of 1× assay buffer containing 0.5% Triton and 40 mM β-mercaptoethanol. Color was developed using 25 μL of 1 mg/mL substrate solution (chlorophenolred β-D galactopyranoside; Roche Molecular Biochemicals, Indianapolis, Ind.) Color was quantitated on a microplate reader at absorbance 570 nm.

Rat SERT = Rat SERT (Rattus norvegicus, UniProt P31652); assay: Rat brain SERT binding, [3H]-Citalopram displacement on rat brain membranes
Rat SERT, sequence (P31652 whole entry): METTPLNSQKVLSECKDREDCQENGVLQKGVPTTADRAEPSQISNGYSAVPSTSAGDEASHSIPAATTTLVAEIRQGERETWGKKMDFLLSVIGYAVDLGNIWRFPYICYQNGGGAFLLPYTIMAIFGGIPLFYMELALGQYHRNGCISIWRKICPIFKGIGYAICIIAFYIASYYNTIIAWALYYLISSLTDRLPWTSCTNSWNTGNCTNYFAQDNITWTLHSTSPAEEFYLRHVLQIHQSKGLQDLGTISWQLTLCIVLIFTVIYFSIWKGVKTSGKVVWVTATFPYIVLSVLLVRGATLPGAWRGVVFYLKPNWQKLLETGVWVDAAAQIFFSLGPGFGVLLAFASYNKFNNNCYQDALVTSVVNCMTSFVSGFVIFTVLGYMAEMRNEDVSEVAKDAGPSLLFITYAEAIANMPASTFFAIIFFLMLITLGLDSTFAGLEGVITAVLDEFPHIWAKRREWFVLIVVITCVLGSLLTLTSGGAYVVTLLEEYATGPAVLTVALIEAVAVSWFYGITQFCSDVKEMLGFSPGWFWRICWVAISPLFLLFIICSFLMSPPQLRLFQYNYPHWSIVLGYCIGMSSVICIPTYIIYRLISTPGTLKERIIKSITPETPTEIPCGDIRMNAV
Experimental: The supernatant was removed and re-centrifuged at 15,000 rpm for 30 min. […] Membranes were incubated with 0.6 nM [^3H]-Citalopram plus/minus test compounds for 60 min at 25° C. and harvested by rapid filtration over GF/C glass fiber filters (pretreated with 0.3% polyethylenimine) followed by four washes with ice-cold buffer.

[3] = read-out: Rat SERT Ki, rat brain membranes without cerebellum, 0.6 nM [3H]-Citalopram, 60 min at 25° C.
[4] = Rat SERT Ki (nM), rat brain membranes without cerebellum, 0.6 nM [3H]-Citalopram, 60 min at 25° C.

Compound	Ki (human H3 receptor [1])	Ki (human SERT)	Kb (human H3 receptor [2]; read-out: pA2 (converted))	Ki (Rat SERT; [3])	Ki (Rat SERT; [4])	Ki (Rat SERT)	Kb (human H3 receptor [2])
CCN(CC)CCCOc1cc2c(cn1)C(c1ccccc1)CN(C)C2 (stereo not shown) [Example 7, Diethyl-[3-(6-methyl-8-phenyl-5,6,7,8-tetrahydro-[2,6]naphthyridin-3-yloxy)-propyl]-amine]	4 nM	2000 nM	0.631 nM	583 nM			
CN1Cc2cc(OCCCN3CCCCC3)ncc2C(c2ccc(F)cc2)C1 (stereo not shown) [Example 18, 4-(4-Fluoro-phenyl)-2-methyl-7-(3-piperidin-1-yl-propoxy)-1,2,3,4-tetrahydro-[2,6]-naphthyridine]	9 nM	362 nM	3.98 nM	186 nM			
CCN(CC)CCCOc1cc2c(cn1)C(c1ccccc1)CNC2 (stereo not shown) [Example 5, Diethyl-[3-(8-phenyl-5,6,7,8-tetrahydro-[2,6]naphthyridin-3-yloxy)-propyl]-amine]	1 nM		2 nM		1200 nM		
Clc1ccccc1C1CNCc2cc(OCCCN3CCCCC3)ncc21 (stereo not shown) [Example 25, 4-(2-Chloro-phenyl)-7-(3-piperidin-1-yl-propoxy)-1,2,3,4-tetrahydro-[2,6]naphthyridine]	1 nM	1330 nM	1 nM	194 nM			
COc1cccc(C2CNCc3cc(OCCCN4CCCCC4)ncc32)c1 (stereo not shown) [Example 13, 4-(3-Methoxy-phenyl)-7-(3-piperidin-1-yl-propoxy)-1,2,3,4-tetrahydro-[2,6]-naphthyridine]	1 nM		1 nM			179 nM	
c1ccc(C2CNCc3cc(OCCCN4CCOCC4)ncc32)cc1 (stereo not shown) [Example 47, 7-(3-Morpholin-4-yl-propoxy)-4-phenyl-1,2,3,4-tetrahydro-[2,6]naphthyridine]	11 nM						12.6 nM
Fc1ccccc1C1CNCc2cc(OCCCN3CCCCC3)ncc21 (stereo not shown) [Example 1, 4-(2-Fluoro-phenyl)-7-(3-piperidin-1-yl-propoxy)-1,2,3,4-tetrahydro-[2,6]naphthyridine]	1 nM		0.794 nM			1000 nM	
Clc1ccc(C2CNCc3cc(OCCCN4CCCCC4)ncc32)cc1Cl (racemic) [Example 15, 4-(3,4-Dichloro-phenyl)-7-(3-piperidin-1-yl-propoxy)-1,2,3,4-tetrahydro-[2,6]-naphthyridine]	5 nM	33 nM	12.6 nM			20 nM	
CCN(CC)CCCOc1cc2c(cn1)C(c1ccc(Cl)c(Cl)c1)CNC2 (stereo not shown) [Example 21, {3-[8-(3,4-Dichloro-phenyl)-5,6,7,8-tetrahydro-[2,6]naphthyridin-3-yloxy]-propyl}-diethyl-amine]	7 nM	26 nM	15.8 nM	15 nM			
Fc1cccc(C2CNCc3cc(OCCCN4CCCCC4)ncc32)c1 (stereo not shown) [Example 32, 4-(3-Fluoro-phenyl)-7-(3-piperidin-1-yl-propoxy)-1,2,3,4-tetrahydro-[2,6]naphthyridine]	2 nM		2.51 nM			2000 nM	
COc1ccc(C2CNCc3cc(OCC4CCN(C(C)C)CC4)ncc32)cc1 (stereo not shown) [Example 31, 7-(1-Isopropyl-piperidin-4-ylmethoxy)-4-(4-methoxy-phenyl)-1,2,3,4-tetrahydro-[2,6]-naphthyridine]	4 nM	93 nM	3.98 nM	15 nM			
Fc1ccc(C2CNCc3cc(OCCCN4CCCCC4)ncc32)cc1 (stereo not shown) [Example 17, 4-(4-Fluoro-phenyl)-7-(3-piperidin-1-yl-propoxy)-1,2,3,4-tetrahydro-[2,6]naphthyridine]	2 nM	1030 nM	2.51 nM			312 nM	
COc1ccc(C2CNCc3cc(OCCCN4CCCCC4)ncc32)cc1 (stereo not shown) [Example 6, 4-(4-Methoxy-phenyl)-7-(3-piperidin-1-yl-propoxy)-1,2,3,4-tetrahydro-[2,6]-naphthyridine]	4 nM	147 nM	6.31 nM		2280 nM		
CN1Cc2cc(OCCCN3CCCCC3)ncc2C(c2ccccc2F)C1 (stereo not shown) [Example 2, 4-(2-Fluoro-phenyl)-2-methyl-7-(3-piperidin-1-yl-propoxy)-1,2,3,4-tetrahydro-[2,6]-naphthyridine]	2 nM	768 nM	1 nM	191 nM			
Clc1cccc(C2CNCc3cc(OCCCN4CCCCC4)ncc32)c1 (stereo not shown) [Example 24, 4-(3-Chloro-phenyl)-7-(3-piperidin-1-yl-propoxy)-1,2,3,4-tetrahydro-[2,6]naphthyridine]	2 nM		2.51 nM		269 nM		
CN1Cc2cc(OCCCN3CCCCC3)ncc2C(c2ccc(Cl)c(Cl)c2)C1 (racemic) [Example 16, 4-(3,4-Dichloro-phenyl)-2-methyl-7-(3-piperidin-1-yl-propoxy)-1,2,3,4-tetrahydro-[2,6]-naphthyridine]	18 nM	120 nM					20 nM
Fc1ccc(C2CNCc3cc(OCCCN4CCCCC4)ncc32)cc1Cl (stereo not shown) [Example 33, 4-(3-Chloro-4-fluoro-phenyl)-7-(3-piperidin-1-yl-propoxy)-1,2,3,4-tetrahydro-[2,6]naphthyridine]	1 nM		3.16 nM			142 nM	
CN1Cc2cc(OCCCN3CCCCC3)ncc2C(c2cccc(F)c2)C1 (stereo not shown) [Example 34, 4-(3-Fluoro-phenyl)-2-methyl-7-(3-piperidin-1-yl-propoxy)-1,2,3,4-tetrahydro-[2,6]-naphthyridine]	2 nM		1 nM			186 nM	
c1ccc(C2CNCc3cc(OCCCN4CCCCC4)ncc32)cc1 (stereo not shown) [Example 4, 4-Phenyl-7-(3-piperidin-1-yl-propoxy)-1,2,3,4-tetrahydro-[2,6]naphthyridine]	1 nM	2330 nM	0.794 nM	1670 nM			
Clc1ccc(C2CNCc3cc(OCCCN4CCCCC4)ncc32)cc1 (stereo not shown) [Example 23, 4-(4-Chloro-phenyl)-7-(3-piperidin-1-yl-propoxy)-1,2,3,4-tetrahydro-[2,6]naphthyridine]	2 nM	141 nM	3.98 nM	30 nM			
